According to PubChem BioAssay (NCI):
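Five compound concentrations were applied to cells in 96-well plates for 48 hours; endpoints were derived by simple linear interpolation of the resulting dose-response curve. GI50 is the concentration that inhibits growth by half. At the TGI there is no net growth.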

How the values were obtained:
Assay in all cases: NCI tumour cell line growth inhibition, 48 h
[1] = system: HCC-2998 colon
[2] = system: OVCAR-8 ovarian
[3] = system: NCI-H522 lung
[4] = system: HOP-92 NSCLC
[5] = system: SN12C renal
[6] = system: KM20L2 colon
[7] = system: SNB-75 CNS
[8] = system: A498 renal
[9] = system: LXFL 529 NSCLC
[10] = system: HCT-15 colon
[11] = system: DMS 114 small cell lung
[12] = system: SK-MEL-28 melanoma
[13] = system: K-562 leukemia
[14] = system: U251 CNS
[15] = system: LOX IMVI melanoma
[16] = system: HT29 colon
[17] = system: NCI-H226 lung
[18] = system: NCI-H460 lung
[19] = system: A549 NSCLC
[20] = system: MALME-3M melanoma
[21] = system: MOLT-4 leukemia
[22] = system: SNB-19 CNS
[23] = system: EKVX NSCLC
[24] = system: DLD-1 colon
[25] = system: UO-31 renal
[26] = system: OVCAR-3 ovarian
[27] = system: HCT-116 colon
[28] = system: 786-0 renal
[29] = system: OVCAR-5 ovarian
[30] = system: M19-MEL melanoma
[31] = system: SR leukemia
[32] = system: KM12 colon
[33] = system: SF-295 CNS
[34] = system: COLO 205 colon
[35] = system: HL-60(TB) leukemia
[36] = system: IGROV1 ovarian
[37] = system: SK-MEL-2 melanoma
[38] = system: UACC-257 melanoma
[39] = system: UACC-62 melanoma
[40] = system: CCRF-CEM leukemia
[41] = system: OVCAR-4 ovarian
[42] = system: TK-10 renal
[43] = system: MDA-MB-231 breast
[44] = system: NCI/ADR-RES ovarian
[45] = system: MDA-N
[46] = system: PC-3 prostate
[47] = system: ACHN renal
[48] = system: SF-539 CNS
[49] = system: SW-620 colon
[50] = system: DU-145 prostate
[51] = system: MDA-MB-435
[52] = system: RPMI-8226 leukemia
[53] = system: SK-MEL-5 melanoma
[54] = system: HOP-62 NSCLC
[55] = system: M14 melanoma
[56] = system: T-47D breast
[57] = system: HS 578T breast
[58] = system: MCF7 breast
[59] = system: RXF 393 renal
[60] = system: SK-OV-3 ovarian
[61] = system: SF-268 CNS
[62] = system: BT-549 breast
[63] = system: NCI-H23 lung
[64] = system: CAKI-1 renal

Compound: CC(=O)[O-].[O-]c1c(Cl)cc(Cl)cc1/C=N/Nc1ccccn1.[Zn+2]
- TGI [1]: > 100 µM
- TGI [2]: 0.837 µM
- TGI [3]: 20.6 µM
- TGI [4]: 0.803 µM
- TGI [5]: > 100 µM
- TGI [6]: > 100 µM
- TGI [7]: > 100 µM
- TGI [8]: > 100 µM
- TGI [9]: > 100 µM
- TGI [10]: > 100 µM
- TGI [11]: 0.605 µM
- TGI [12]: > 100 µM
- TGI [13]: > 100 µM
- TGI [14]: > 100 µM
- TGI [15]: > 100 µM
- TGI [16]: > 100 µM
- TGI [17]: > 100 µM
- TGI [18]: > 100 µM
- TGI [19]: > 100 µM
- TGI [20]: > 100 µM
- TGI [21]: 0.581 µM
- TGI [22]: > 100 µM
- TGI [23]: 9.01 µM
- TGI [24]: > 100 µM
- TGI [25]: > 100 µM
- TGI [26]: 0.707 µM
- TGI [27]: > 100 µM
- TGI [28]: > 100 µM
- TGI [29]: 6.43 µM
- TGI [30]: > 100 µM
- TGI [31]: 0.675 µM
- TGI [32]: > 100 µM
- TGI [33]: 5.41 µM
- TGI [34]: > 100 µM
- TGI [35]: 0.736 µM
- TGI [36]: > 100 µM
- TGI [37]: 1.98 µM
- TGI [38]: > 100 µM
- TGI [39]: 2.43 µM

Compound: CC(C)(C)c1ccc(O)c(CN(Cc2cc(C(C)(C)C)ccc2O)C2CCCCC2)c1
- TGI [1]: 4.48 µM
- TGI [2]: 42 µM
- TGI [3]: 33.7 µM
- TGI [40]: 99.9 µM
- TGI [41]: 50.3 µM
- TGI [4]: 23.9 µM
- TGI [5]: 42.1 µM
- TGI [7]: 51.3 µM
- TGI [8]: 31 µM
- TGI [10]: 36.2 µM
- TGI [42]: 32.4 µM
- TGI [43]: 30.4 µM
- TGI [12]: 27.2 µM
- TGI [13]: 27.9 µM
- TGI [44]: 42.1 µM
- TGI [45]: 28.1 µM
- TGI [14]: 30.4 µM
- TGI [46]: 46.8 µM
- TGI [15]: 24.1 µM
- TGI [16]: 37.1 µM
- GI50 [17]: 28.5 µM
- TGI [17]: > 100 µM
- TGI [18]: 31.5 µM
- TGI [19]: > 56.7 µM
- TGI [47]: 37.4 µM
- TGI [48]: 31 µM
- TGI [49]: 35.1 µM
- TGI [20]: 30.8 µM
- TGI [50]: 45.4 µM
- TGI [51]: 29.8 µM
- TGI [52]: 25.1 µM
- TGI [21]: 49.8 µM
- TGI [22]: 41 µM
- TGI [23]: > 63.7 µM
- TGI [53]: 28.4 µM
- TGI [54]: 46.5 µM
- TGI [55]: 28.4 µM
- TGI [25]: 99.9 µM
- TGI [56]: 45 µM
- TGI [57]: 45.3 µM
- TGI [58]: 35.5 µM
- TGI [26]: 34.9 µM
- TGI [59]: 30 µM
- TGI [27]: 30.6 µM
- TGI [60]: 47.8 µM
- TGI [28]: 29.8 µM
- TGI [29]: 34.1 µM
- TGI [61]: > 53.9 µM
- TGI [62]: 46.5 µM
- TGI [31]: 31.4 µM
- TGI [63]: 48.7 µM
- TGI [32]: 41.2 µM
- TGI [33]: 34 µM
- TGI [34]: 6.81 µM
- GI50 [35]: 13.9 µM
- TGI [35]: 33.3 µM
- TGI [36]: 45.9 µM
- TGI [37]: 35.4 µM
- TGI [38]: 37.4 µM
- TGI [64]: > 70.1 µM
- TGI [39]: 31.4 µM

Compound: CC(Oc1ccccc1Cl)C(=O)NN1C(=O)CSC1c1ccc(Cl)cc1 (stereo unspecified)
- TGI [1]: 34.2 µM
- TGI [2]: 56.5 µM
- TGI [3]: 32.8 µM
- TGI [40]: 0.381 µM
- TGI [41]: 29.3 µM
- TGI [4]: 40.7 µM
- TGI [5]: 28 µM
- TGI [7]: 45.4 µM
- TGI [8]: 34.8 µM
- TGI [10]: 43.8 µM
- TGI [42]: 55.9 µM
- TGI [43]: 32.7 µM
- TGI [12]: 49.2 µM
- TGI [13]: 30.6 µM
- TGI [44]: 61.4 µM
- TGI [45]: 29.8 µM
- TGI [14]: 31.6 µM
- TGI [46]: 38.2 µM
- TGI [15]: 39 µM
- TGI [16]: 39.5 µM
- TGI [17]: 35.3 µM
- TGI [18]: 59.8 µM
- TGI [19]: 41 µM
- TGI [47]: 63 µM
- TGI [48]: 65.3 µM
- TGI [49]: 55.2 µM
- TGI [20]: 93.4 µM
- TGI [50]: 37.6 µM
- TGI [51]: 31.1 µM
- TGI [52]: 38.4 µM
- TGI [22]: 50.2 µM
- TGI [23]: 71.6 µM
- TGI [53]: 31.7 µM
- TGI [54]: 36.4 µM
- TGI [55]: 34.5 µM
- TGI [25]: > 100 µM
- TGI [56]: 52.1 µM
- TGI [57]: 46.3 µM
- TGI [58]: 35.7 µM
- TGI [26]: 61.9 µM
- TGI [59]: 33.4 µM
- TGI [27]: 29.3 µM
- TGI [60]: 39.7 µM
- TGI [28]: 28.6 µM
- TGI [29]: 48 µM
- TGI [61]: 47.6 µM
- TGI [62]: 45.1 µM
- TGI [31]: 22.9 µM
- TGI [63]: 39.2 µM
- TGI [32]: 36.1 µM
- TGI [33]: 37.8 µM
- TGI [34]: 37.1 µM
- TGI [35]: 23.5 µM
- TGI [36]: 43 µM
- TGI [37]: 44.9 µM
- TGI [38]: 45.1 µM
- TGI [64]: 56.4 µM
- TGI [39]: 34 µM

Compound: NC(=O)C(Nc1ccc(Cl)cc1)c1cc2cc(Br)ccc2nc1Cl (stereo unspecified)
- TGI [1]: > 50 µM
- TGI [2]: > 50 µM
- TGI [3]: > 50 µM
- TGI [40]: > 50 µM
- TGI [41]: > 50 µM
- TGI [4]: > 50 µM
- TGI [5]: > 50 µM
- TGI [7]: > 50 µM
- TGI [8]: > 50 µM
- TGI [10]: > 50 µM
- TGI [42]: 47.7 µM
- TGI [43]: > 50 µM
- TGI [12]: > 50 µM
- TGI [13]: > 50 µM
- TGI [44]: > 50 µM
- TGI [45]: > 50 µM
- TGI [46]: > 50 µM
- TGI [15]: > 50 µM
- TGI [16]: > 50 µM
- TGI [17]: > 50 µM
- TGI [18]: > 50 µM
- TGI [19]: > 50 µM
- TGI [47]: > 50 µM
- TGI [48]: > 50 µM
- TGI [49]: > 50 µM
- TGI [20]: > 50 µM
- TGI [50]: > 50 µM
- TGI [51]: > 50 µM
- TGI [52]: > 50 µM
- TGI [21]: > 50 µM
- TGI [22]: > 50 µM
- TGI [23]: > 50 µM
- TGI [53]: > 50 µM
- TGI [54]: > 50 µM
- TGI [55]: > 50 µM
- TGI [25]: > 50 µM
- TGI [56]: > 50 µM
- TGI [57]: > 50 µM
- TGI [58]: > 50 µM
- TGI [26]: > 50 µM
- TGI [59]: > 50 µM
- TGI [27]: > 50 µM
- TGI [60]: > 50 µM
- TGI [28]: > 50 µM
- TGI [29]: > 50 µM
- TGI [61]: > 50 µM
- TGI [62]: > 50 µM
- TGI [31]: > 50 µM
- TGI [63]: > 50 µM
- TGI [32]: > 50 µM
- TGI [33]: > 50 µM
- TGI [34]: > 50 µM
- TGI [35]: > 50 µM
- TGI [36]: > 50 µM
- TGI [37]: > 50 µM
- TGI [38]: > 50 µM
- TGI [64]: > 50 µM
- TGI [39]: > 50 µM
